This passage reports EC50 and IC50 results from patent US20260116868A1 (Arcus Biosciences, Inc., priority 2023, published 2026).

Molecules are shown by their SMILES. Like-named read-outs stand apart in the source and are kept apart here. Some results are limits rather than exact numbers.

In one test the test system is Jurkat cells. Description: IL-2 secretion assay in Jurkat cells activated with CD3/CD28 T Cell Activator. It is filed as cell-based. The conditions noted are these: Homo sapiens, 24 h, read-out: IL-2 Secretion (EC50). As for the experimental part:
Certain compounds were also evaluated in an IL-2 secretion assay. On the day of the assay, a 16 point, 1:2 master serial dilution of each compound was prepared in Opti-MEM to span a final concentration range of 10 μM to 300 pM. Assays were set up in CORNING® tissue culture-treated 384-well microplates containing 60 nL of each dilution. Jurkat cells grown in RPMI-1640 supplemented with 10% FBS, 1% Glutamax, and 1% Pen/Strep were collected, resuspended in Opti-MEM. 50,000 cells/well and added to the compound plates. After a short spin (1200 rpm for 1 min), the plates were incubated at 37° C. for 1 hour. The cells were activated by adding 15 μL of IMMUNOCULT™ Human CD3/CD28 T Cell Activator (STEMCELL Technologies) diluted in Opti-MEM. After 24 h of incubation at 37° C., aliquots of culture supernatants were transferred to OptiPlate-384 (PerkinElmer) microplates. The level of IL-2 secretion in the supernatants was then determined using the IL-2 (human) AlphaLISA Detection Kit (PerkinElmer) according to the manufacturer's recommendations. The AlphaLISA signal was measured using an EnVision plate reader (PerkinElmer). EC50 values were determined by fitting the data to a standard 4-parameter logistic equation. See Table 7 for data for select compounds (IL-2 Secretion (EC50)).

A further test concerns the target T1, Cbl-b (Homo sapiens, UniProt Q13191).
T1 construct: biotin (biotinylated protein)
Description: Cbl-b probe displacement HTRF binding assay. To be noted: 0.4 nM Cbl-b, 150 nM BODIPY probe. The method in brief:
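Binding IC50 from four-parameter fit of HTRF signal loss, normalised to DMSO (0%) and no-protein (100%) wells. Biotinylated Cbl-b 0.4 nM was preincubated 60 min with compound (20-point 1:2 dilution) before 15 min with 150 nM BODIPY probe; Tb-streptavidin detection.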

Setting [1] is: Jurkat cells, CD3/CD28 T Cell Activator, IL-2 AlphaLISA.

T1 sequence (Q13191 whole entry, species assumed): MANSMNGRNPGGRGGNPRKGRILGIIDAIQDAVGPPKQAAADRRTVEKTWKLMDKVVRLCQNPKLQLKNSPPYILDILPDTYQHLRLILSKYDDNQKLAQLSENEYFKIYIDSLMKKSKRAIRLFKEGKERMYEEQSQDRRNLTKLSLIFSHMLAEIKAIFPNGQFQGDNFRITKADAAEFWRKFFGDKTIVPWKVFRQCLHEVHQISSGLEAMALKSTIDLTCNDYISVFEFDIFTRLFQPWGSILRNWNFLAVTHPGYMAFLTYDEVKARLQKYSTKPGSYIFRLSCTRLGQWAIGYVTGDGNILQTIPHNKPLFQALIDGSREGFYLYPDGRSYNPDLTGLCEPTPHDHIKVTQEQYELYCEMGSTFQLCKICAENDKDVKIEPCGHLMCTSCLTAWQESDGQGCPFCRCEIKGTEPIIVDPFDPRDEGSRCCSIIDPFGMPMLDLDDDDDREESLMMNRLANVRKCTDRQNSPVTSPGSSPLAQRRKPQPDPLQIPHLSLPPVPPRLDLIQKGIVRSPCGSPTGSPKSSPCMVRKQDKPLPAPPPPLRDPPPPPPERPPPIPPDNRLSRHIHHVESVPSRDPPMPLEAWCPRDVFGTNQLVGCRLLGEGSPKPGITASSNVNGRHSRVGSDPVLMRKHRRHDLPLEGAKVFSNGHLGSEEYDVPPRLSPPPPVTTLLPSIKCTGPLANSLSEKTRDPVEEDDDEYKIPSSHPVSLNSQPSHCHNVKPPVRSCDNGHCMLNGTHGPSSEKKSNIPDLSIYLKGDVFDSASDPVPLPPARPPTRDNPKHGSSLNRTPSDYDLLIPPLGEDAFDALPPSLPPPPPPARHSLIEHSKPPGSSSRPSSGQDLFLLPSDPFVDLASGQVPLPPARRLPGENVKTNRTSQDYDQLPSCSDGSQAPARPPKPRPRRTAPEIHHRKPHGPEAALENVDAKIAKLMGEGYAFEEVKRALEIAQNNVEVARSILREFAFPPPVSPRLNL

For orientation: EC50 means the concentration needed to bring the measured effect to its halfway point. What is called IC50 is the concentration that gives 50% inhibition. A low value points to inhibition by little substance. In the case of `CC1CC(c2cccc(NC(=O)c3cc(CN4CCC[C@H](C)C4)cn(C4CC4)c3=O)c2)(c2nncn2C)C1` (mixture of isomers) [Example 76, 1-cyclopropyl-N-[3-[3-methyl-1-(4-methyl-1,2,4-triazol-3-yl)cyclobutyl]phenyl]-5-[[(3S)-3-methylpiperidin-1-yl]methyl]-2-oxopyridine-3-carboxamide], the 50% effective concentration (EC50) in the test with Jurkat cells (setting [1]) was less than 100 nM. Moreover, the IC50 at Cbl-b is less than 100 nM. Take `CC1CC(c2cccc(NC(=O)c3cc(CN4CCC[C@H](C)C4)cn(CC4CC4)c3=O)c2)(c2nncn2C)C1` (mixture of isomers) [Example 78, 1-(cyclopropylmethyl)-N-[3-[3-methyl-1-(4-methyl-1,2,4-triazol-3-yl)cyclobutyl]phenyl]-5-[[(3S)-3-methylpiperidin-1-yl]methyl]-2-oxopyridine-3-carboxamide]: the EC50 with Jurkat cells (setting [1]) is 100 to 1000 nM. Further, at Cbl-b, the IC50 is less than 100 nM. Turning to `C[C@@H]1CN(Cc2cc(C(=O)Nc3cc(-c4ccc(C#N)cc4-c4nccn4C)cc(C4CC4)n3)c(=O)n(C3CC3)c2)CCO1` (single isomer, unassigned) [Example 36], the concentration for a half-maximal effect (EC50) with Jurkat cells (setting [1]) was 1000 to 5000 nM. The compound also yielded a 50% inhibitory concentration (IC50) on Cbl-b of 100 to 1000 nM.

For `Cn1ccnc1-c1cc(C#N)ccc1-c1cc(NC(=O)c2cc(CO)cn(C3CC3)c2=O)nc(C2CC2)c1` (single isomer, unassigned) [Example 37, N-{4-[4-cyano-2-(1-methyl-2-imidazolyl)phenyl]-6-cyclopropyl-2-pyridyl}-1-cyclopropyl-5-(hydroxymethyl)-2-oxo-1,2-dihydronicotinamide], the EC50 in the test with Jurkat cells (setting [1]) was greater than 5000 nM. Moreover, on Cbl-b, the IC50 is 100 to 1000 nM. Take `COCCNCc1cc(C(=O)Nc2cc(-c3ccc(C#N)cc3-c3ncoc3C)cc(C3CC3)n2)c(=O)n(C2CC2)c1` (single isomer, unassigned) [Example 50, N-{4-[4-cyano-2-(5-methyl-1,3-oxazol-4-yl)phenyl]-6-cyclopropyl-2-pyridyl}-1-cyclopropyl-5-[(2-methoxyethylamino)methyl]-2-oxo-1,2-dihydronicotinamide]: the EC50 in the test with Jurkat cells (setting [1]) is less than 100 nM. At Cbl-b, the IC50 was less than 100 nM. As to `COCCNCc1cc(C(=O)Nc2cc(-c3ccc(C(=O)OC)cc3-c3ncoc3C)cc(C3CC3)n2)c(=O)n(C2CC2)c1` (single isomer, unassigned) [Example 51, methyl 4-(6-cyclopropyl-2-{1-cyclopropyl-5-[(2-methoxyethylamino)methyl]-2-oxo-1,2-dihydronicotinoylamino}-4-pyridyl)-3-(5-methyl-1,3-oxazol-4-yl)benzoate], the half-maximal effective concentration (EC50) with Jurkat cells (setting [1]) lay within 1000 to 5000 nM. The IC50 at Cbl-b was in the range of 100 to 1000 nM. In the same order, the values of `O=C(Nc1cc(-c2ccc(OC(F)F)cc2C(=O)N2CC(F)(F)C2)cc(C2CC2)n1)c1cc(CNCC2CCCO2)cn(C2CC2)c1=O` (stereo in doubt) [Example 84, N-(6-cyclopropyl-4-{2-[(3,3-difluoro-1-azetidinyl)carbonyl]-4-difluoromethoxyphenyl}-2-pyridyl)-5-[({[(R)-tetrahydro-2-furyl]methyl}amino)methyl]-1-cyclopropyl-2-oxo-1,2-dihydronicotinamide] are less than 100 nM and less than 100 nM. With `C[C@H]1CCCN(Cc2cc(C(=O)Nc3cc(-c4ccc(C#N)cc4-c4nncn4C)cc(C4CC4)n3)c(=O)n(C3CC3)c2)C1` [Example 1, N-{4-[4-cyano-2-(4-methyl-4H-1,2,4-triazol-3-yl)phenyl]-6-cyclopropyl-2-pyridyl}-5-{[(S)-3-methyl-1-piperidyl]methyl}-1-cyclopropyl-2-oxo-1,2-dihydronicotinamide], the EC50 with Jurkat cells (Jurkat) was less than 100 nM. This compound also displayed an IC50 at Cbl-b of less than 100 nM. For `C[C@H]1CCCN(Cc2cc(C(=O)Nc3cc(-c4ccc(F)cc4-c4nncn4C)cc(C4CC4)n3)c(=O)n(C3CC3)c2)C1` [Example 2, 1-Cyclopropyl-N-[6-cyclopropyl-4-[4-fluoro-2-(4-methyl-1,2,4-triazol-3-yl)phenyl]pyridin-2-yl]-5-[[(3S)-3-methylpiperidin-1-yl]methyl]-2-oxopyridine-3-carboxamide], the concentration for a half-maximal effect (EC50) in the test with Jurkat cells (setting [1]) was less than 100 nM. Further, the IC50 at Cbl-b was less than 100 nM.

On to `COCCNCc1cc(C(=O)Nc2cc(-c3ccc(C#N)cc3-c3nncn3C)cc(C3CC3)n2)c(=O)n(C2CC2)c1` [Example 3, N-[4-[4-cyano-2-(4-methyl-1,2,4-triazol-3-yl)phenyl]-6-cyclopropylpyridin-2-yl]-1-cyclopropyl-5-[(2-methoxyethylamino)methyl]-2-oxopyridine-3-carboxamide], for which the concentration giving a half-maximal response (EC50) in the test on Jurkat cells (setting [1]) was less than 100 nM. Also, at Cbl-b, the half-inhibitory concentration (IC50) was less than 100 nM. Turning to `COCCNCc1cc(C(=O)Nc2cc(-c3ccc(F)cc3-c3nncn3C)cc(C3CC3)n2)c(=O)n(C2CC2)c1` [Example 4, 1-cyclopropyl-N-[6-cyclopropyl-4-[4-fluoro-2-(4-methyl-1,2,4-triazol-3-yl)phenyl]pyridin-2-yl]-5-[(2-methoxyethylamino)methyl]-2-oxopyridine-3-carboxamide], the concentration giving a half-maximal response (EC50) in the test on Jurkat cells (setting [1]) was less than 100 nM. At Cbl-b, this compound returned a half-maximal inhibitory concentration (IC50) of less than 100 nM. `CCOc1cc(-c2ccc(F)cc2-c2nncn2C)cc(NC(=O)c2cc(CNCCOC)cn(C3CC3)c2=O)n1` [Example 5, 1-cyclopropyl-N-[6-ethoxy-4-[4-fluoro-2-(4-methyl-1,2,4-triazol-3-yl)phenyl]pyridin-2-yl]-5-[(2-methoxyethylamino)methyl]-2-oxopyridine-3-carboxamide]: in the test on Jurkat cells (setting [1]), the half-maximal effective concentration (EC50) is less than 100 nM. The half-inhibitory concentration (IC50) on Cbl-b was less than 100 nM. As to `COCCN(C)Cc1cc(C(=O)Nc2cc(-c3ccc(F)cc3-c3nncn3C)cc(C3CC3)n2)c(=O)n(C2CC2)c1` [Example 6, N-{6-cyclopropyl-4-[4-fluoro-2-(4-methyl-4H-1,2,4-triazol-3-yl)phenyl]-2-pyridyl}-1-cyclopropyl-5-{[(2-methoxyethyl)-N-methylamino]methyl}-2-oxo-1,2-dihydronicotinamide], the EC50 in the test on Jurkat cells (setting [1]) was 1000 to 5000 nM. Also, at Cbl-b, the half-inhibitory concentration (IC50) was less than 100 nM. The like results for `C[C@H]1CCCN(Cc2cc(C(=O)Nc3cc(-c4ccc(C#N)cc4-c4nncn4C(F)F)cc(C4CC4)n3)c(=O)n(C3CC3)c2)C1` [Example 7, N-(4-{4-cyano-2-[4-(difluoromethyl)-4H-1,2,4-triazol-3-yl]phenyl}-6-cyclopropyl-2-pyridyl)-5-{[(S)-3-methyl-1-piperidyl]methyl}-1-cyclopropyl-2-oxo-1,2-dihydronicotinamide] were, in that order, less than 100 nM and less than 100 nM. `CO[C@@H](C)CNCc1cc(C(=O)Nc2cc(-c3ccc(OC(F)F)cc3C(=O)N3CC(F)(F)C3)cc(C3CC3)n2)c(=O)n(C2CC2)c1` [Example 89, N-(6-cyclopropyl-4-{2-[(3,3-difluoro-1-azetidinyl)carbonyl]-4-difluoromethoxyphenyl}-2-pyridyl)-5-{[(S)-2-methoxypropylamino]methyl}-1-cyclopropyl-2-oxo-1,2-dihydronicotinamide]: the concentration for a half-maximal effect (EC50) with Jurkat cells (setting [1]) was less than 100 nM. With `O=C(Nc1cc(-c2ccc(Cl)cc2C(=O)N2CC(F)(F)C2)cc(C2CC2)n1)c1cc(CNC[C@@H]2CCCO2)cn(C2CC2)c1=O` [Example 90, N-(4-{4-chloro-2-[(3,3-difluoro-1-azetidinyl)carbonyl]phenyl}-6-cyclopropyl-2-pyridyl)-5-[({[(S)-tetrahydro-2-furyl]methyl}amino)methyl]-1-cyclopropyl-2-oxo-1,2-dihydronicotinamide], the 50% effective concentration (EC50) with Jurkat cells (setting [1]) is less than 100 nM. As for `CCOc1cc(-c2ccc(Cl)cc2C(=O)N2CC(F)(F)C2)cc(NC(=O)c2cc(CNC[C@@H]3CCCO3)cn(C3CC3)c2=O)n1` [Example 91, N-(4-{4-chloro-2-[(3,3-difluoro-1-azetidinyl)carbonyl]phenyl}-6-ethoxy-2-pyridyl)-5-[({[(S)-tetrahydro-2-furyl]methyl}amino)methyl]-1-cyclopropyl-2-oxo-1,2-dihydronicotinamide], the EC50 in the test with Jurkat cells (setting [1]) was less than 100 nM. Still for that read-out and setting: then `CC(C)Nc1cc(-c2ccc(Cl)cc2C(=O)N2CC(F)(F)C2)cc(NC(=O)c2cc(CNC[C@@H]3CCCO3)cn(C3CC3)c2=O)n1` [Example 92, N-(4-{4-chloro-2-[(3,3-difluoro-1-azetidinyl)carbonyl]phenyl}-6-(isopropylamino)-2-pyridyl)-5-[({[(S)-tetrahydro-2-furyl]methyl}amino)methyl]-1-cyclopropyl-2-oxo-1,2-dihydronicotinamide], with less than 100 nM. Consider `N#Cc1ccc(-c2cc(NC(=O)c3cc(CNC[C@@H]4CCCO4)cn(CC(F)(F)F)c3=O)nc(C3CC3)c2)c(C(=O)N2CC(F)(F)C2)c1` [Example 93, N-[4-[4-cyano-2-(3,3-difluoroazetidine-1-carbonyl)phenyl]-6-cyclopropylpyridin-2-yl]-2-oxo-5-[[[(2S)-oxolan-2-yl]methylamino]methyl]-1-(2,2,2-trifluoroethyl)pyridine-3-carboxamide], for which the concentration for a half-maximal effect (EC50) in the test on Jurkat cells (setting [1]) is less than 100 nM.
